# Test results as given in patent US20250230171A1 (MOMA Therapeutics, Inc., priority 2023, published 2025).
# Where two headings read alike, the source gives them in different places.
# Columns and labels:
# [1] = test system: DLD1 WT cells; assay: 7-day cell viability assay (CellTiter-Glo), DLD1 parental (WT); format: cell-based, human; settings: n=2
# [2] = molecular target: biotinylated Avi-POLθ[2-894] (Homo sapiens (Human), UniProt O75417); assay: POLθ ATPase assay (ADP-Glo); settings: n=2, read-out: Biochemical ATPase ADPGlo IC50
# Chain of biotinylated Avi-POLθ[2-894] (O75417 2-894): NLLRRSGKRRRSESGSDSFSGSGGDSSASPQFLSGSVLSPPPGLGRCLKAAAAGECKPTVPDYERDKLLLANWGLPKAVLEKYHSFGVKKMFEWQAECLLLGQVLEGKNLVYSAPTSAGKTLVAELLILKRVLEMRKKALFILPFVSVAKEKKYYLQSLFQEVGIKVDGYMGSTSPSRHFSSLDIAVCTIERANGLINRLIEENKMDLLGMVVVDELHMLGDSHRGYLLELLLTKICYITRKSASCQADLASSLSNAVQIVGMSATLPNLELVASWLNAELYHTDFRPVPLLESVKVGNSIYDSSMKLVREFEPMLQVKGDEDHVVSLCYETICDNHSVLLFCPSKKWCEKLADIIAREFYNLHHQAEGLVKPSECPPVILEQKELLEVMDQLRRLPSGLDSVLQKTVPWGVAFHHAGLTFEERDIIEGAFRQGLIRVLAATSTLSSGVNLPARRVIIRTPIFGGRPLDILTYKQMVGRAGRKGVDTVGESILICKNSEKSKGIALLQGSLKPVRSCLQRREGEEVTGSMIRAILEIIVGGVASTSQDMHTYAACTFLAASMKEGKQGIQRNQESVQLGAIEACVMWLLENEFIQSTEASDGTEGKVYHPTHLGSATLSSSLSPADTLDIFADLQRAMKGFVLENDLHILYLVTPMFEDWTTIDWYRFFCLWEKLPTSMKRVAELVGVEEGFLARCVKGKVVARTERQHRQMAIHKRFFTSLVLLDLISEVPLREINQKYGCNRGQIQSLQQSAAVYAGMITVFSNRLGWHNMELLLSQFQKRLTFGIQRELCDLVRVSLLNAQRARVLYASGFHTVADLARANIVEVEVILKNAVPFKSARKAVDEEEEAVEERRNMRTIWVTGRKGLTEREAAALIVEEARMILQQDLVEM
# [3] = test system: DLD1 BRCA2 (−/−) cells; assay: 7-day cell viability assay (CellTiter-Glo), DLD1 BRCA2 (−/−); format: cell-based, human; settings: n=2, read-out: Viability IC50 (uM) DLD1 BRCA2 null
# Procedure, shortened: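 7-day growth assay in DLD1 cells with or without BRCA2; seeding densities chosen to keep log-linear growth. Compound: 10 uM top, 3-fold, 9 points. Endpoint: CTG ATP luminescence at RT.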
# [4] = Homo sapiens, DLD-1, 168 h, 7-day viability
# [5] = Homo sapiens, DLD-1, 168 h, 7-day CellTiter-Glo
IC50 [2] [µM],"IC50 [3, 4] [µM]","IC50 [3, 5] [µM]",Compound,"IC50 [1, 4] [µM]","IC50 [1, 5] [µM]",other results
0.001 to 0.015,0.1 to 0.25,–,COc1cnc(Cl)cc1-c1cc(C)ncc1C(=O)Nc1nc2c(s1)CN(C(=O)c1ncccc1OC)C2 [Example 169],≥ 10,–,–
0.001 to 0.015,0.001 to 0.1,–,COc1ncc(Cl)cc1-c1cc(C)ncc1C(=O)Nc1nc2c(s1)CN(C(=O)c1ccccn1)C2 [Example 118],2 to 5,–,–
0.001 to 0.015,0.001 to 0.1,–,COc1cnc(Cl)cc1-c1cc(C)ncc1C(=O)Nc1nc2c(s1)CN(C(=O)c1c(C(F)F)cnn1C)C2 (racemic),≥ 10,–,–
0.001 to 0.015,0.5 to 2,–,COc1ccc(C#N)cc1-c1cc(C)ncc1C(=O)Nc1nc2c(s1)CN(S(=O)(=O)N1CCCCC1)C2,≥ 10,–,–
≥ 0.9,≥ 2,–,COc1ccccc1-c1cc(C)ncc1C(=O)Nc1nc2c(s1)CN(C(=O)C1CC1)CC2,0.5 to 2,–,–
0.001 to 0.015,0.001 to 0.1,–,COc1cnc(Cl)cc1-c1cc(C)ncc1C(=O)Nc1nc2c(s1)CN(C(=O)c1nn(C)c(C)c1F)C2 [Example 66],5 to 10,–,–
0.001 to 0.015,≥ 2,–,COc1ccc(C#N)cc1-c1cc(C)ncc1C(=O)Nc1nc2c(s1)CN(S(=O)(=O)NCC(F)(F)F)C2,≥ 10,–,–
0.015 to 0.05,≥ 2,–,COc1ccc(C#N)cc1-c1cc(C)ncc1C(=O)Nc1nc2c(s1)CN(S(=O)(=O)C1CC1)C2,≥ 10,–,–
0.001 to 0.015,0.5 to 2,–,COc1cnc(Cl)cc1-c1cc(C)ncc1C(=O)Nc1nc2c(s1)CC(Nc1ccc(O)cc1)CC2 (stereo not shown) [Example 135],5 to 10,–,–
0.001 to 0.015,0.001 to 0.1,–,COc1cnc(Cl)cc1-c1cc(C)ncc1C(=O)Nc1nc2c(s1)CN(C(=O)c1ccc(C(F)(F)F)cn1)C2 [Example 132],5 to 10,–,–
–,–,0.001 to 0.1,COc1cc(Cl)c(C(=O)N2Cc3nc(NC(=O)c4cnc(C)cc4-c4cc(Cl)ncc4OC)sc3C2)cn1,–,≥ 10,"IC50 ([2]; POLθ ATPase, ADP-Glo): 0.001 to 0.015 µM"
–,–,0.001 to 0.1,"COc1cnc(Cl)cc1-c1cc(C)ncc1C(=O)Nc1nc2c(s1)CN(C(=O)[C@H]1CC[C@H](C(F)F)CC1)C2 [Example 908, 2′-chloro-N-(5-((1r,4r)-4-(difluoromethyl)cyclohexane-1-carbonyl)-5,6-dihydro-4H-pyrrolo[3,4-d]thiazol-2-yl)-5′-methoxy-6-methyl-[4,4′-bipyridine]-3-carboxamide]",–,≥ 10,–
–,–,0.001 to 0.1,"COc1cnc(Cl)cc1-c1cc(C)ncc1C(=O)Nc1nc2c(s1)CN(C(=O)c1nccc(C(F)F)c1F)C2 [Example 949, 2′-chloro-N-(5-(4-(difluoromethyl)-3-fluoropicolinoyl)-5,6-dihydro-4H-pyrrolo[3,4-d]thiazol-2-yl)-5′-methoxy-6-methyl-[4,4′-bipyridine]-3-carboxamide]",–,≥ 10,–
–,–,0.001 to 0.1,"COc1cnc(Cl)cc1-c1cc(C)ncc1C(=O)Nc1nc2c(s1)CN(C(=O)c1nc(Cl)c(C(F)F)cc1C)C2 [Example 940, 2′-chloro-N-(5-(6-chloro-5-(difluoromethyl)-3-methylpicolinoyl)-5,6-dihydro-4H-pyrrolo[3,4-d]thiazol-2-yl)-5′-methoxy-6-methyl-[4,4′-bipyridine]-3-carboxamide]",–,≥ 10,–
–,–,0.001 to 0.1,COc1cnc(Cl)cc1-c1cc(C)ncc1C(=O)Nc1nc2c(s1)CN(C(=O)c1cc(Cl)c(C(F)F)cn1)C2,–,5 to 10,–
–,–,0.001 to 0.1,"COc1cnc(Cl)cc1-c1cc(C)ncc1C(=O)Nc1nc2c(s1)CN(C(=O)c1nccc(Cl)c1C(F)F)C2 [Example 926, 2′-chloro-N-(5-(4-chloro-3-(difluoromethyl)picolinoyl)-5,6-dihydro-4H-pyrrolo[3,4-d]thiazol-2-yl)-5′-methoxy-6-methyl-[4,4′-bipyridine]-3-carboxamide]",–,≥ 10,–

IC50 [2] [µM],"IC50 [3, 4] [µM]","IC50 [3, 5] [µM]",Compound,"IC50 [1, 4] [µM]","IC50 [1, 5] [µM]",other results
–,–,0.001 to 0.1,"COc1cc(C)c(C(=O)N2Cc3nc(NC(=O)c4cnc(C)cc4-c4cc(Cl)ncc4OC)sc3C2)c(Cl)n1 [Example 1030, 2′-chloro-N-(5-(2-chloro-6-methoxy-4-methylnicotinoyl)-5,6-dihydro-4H-pyrrolo[3,4-d]thiazol-2-yl)-5′-methoxy-6-methyl-[4,4′-bipyridine]-3-carboxamide]",–,≥ 10,–
–,–,0.001 to 0.1,COc1cnc(Cl)cc1-c1cc(C)ncc1C(=O)Nc1nc2c(s1)CN(C(=O)c1cc(C)c(C(F)(F)F)c(C)n1)C2,–,≥ 10,–
–,–,0.001 to 0.1,"Cc1cc(-c2cc(Cl)cnc2OC(F)F)c(C(=O)Nc2nc3c(s2)CN(C(=O)c2ccc(C(F)F)cn2)C3)cn1 [Example 938, 5-chloro-2-(difluoromethoxy)-N-(5-(5-(difluoromethyl)picolinoyl)-5,6-dihydro-4H-pyrrolo[3,4-d]thiazol-2-yl)-6′-methyl-[3,4′-bipyridine]-3′-carboxamide]",–,≥ 10,–
–,–,–,"2′-Chloro-N-(5-(6-chloro-3-methylpyrazine-2-carbonyl)-5,6-dihydro-4H-pyrrolo[3,4-d]thiazol-2-yl)-5′-methoxy-6-methyl-[4,4′-bipyridine]-3-carboxamide [Example 505]",–,–,IC50 ([1]; 7-day CellTiter-Glo): 5 to 10 µM; IC50 ([3]; 7-day CellTiter-Glo): 0.001 to 0.1 µM
–,–,0.001 to 0.1,"COc1cnc(Cl)cc1-c1cc(C)ncc1C(=O)Nc1nc2c(s1)CN(C(=O)c1nccc(C(F)F)c1OC)C2 [Example 966, 2′-chloro-N-(5-(4-(difluoromethyl)-3-methoxypicolinoyl)-5,6-dihydro-4H-pyrrolo[3,4-d]thiazol-2-yl)-5′-methoxy-6-methyl-[4,4′-bipyridine]-3-carboxamide]",–,≥ 10,–
–,–,0.001 to 0.1,"COc1cnc(Cl)cc1-c1cc(C)ncc1C(=O)Nc1nc2c(s1)CN(C(=O)c1ccc(OC(F)(F)F)c(C)n1)C2 [Example 995, 2′-chloro-5′-methoxy-6-methyl-N-(5-(6-methyl-5-(trifluoromethoxy)picolinoyl)-5,6-dihydro-4H-pyrrolo[3,4-d]thiazol-2-yl)-[4,4′-bipyridine]-3-carboxamide]",–,≥ 10,–
–,–,–,"N-(5-(2-Methoxy-6-(trifluoromethyl)nicotinoyl)-5,6-dihydro-4H-pyrrolo[3,4-d]thiazol-2-yl)-4-(6-methoxyimidazo[1,5-a]pyridin-7-yl)-6-methylnicotinamide [Example 568]",–,–,IC50 ([1]; 7-day CellTiter-Glo): ≥ 10 µM; IC50 ([3]; 7-day CellTiter-Glo): 0.001 to 0.1 µM
–,–,0.001 to 0.1,"COc1nnc(Cl)cc1-c1cc(C)ncc1C(=O)Nc1nc2c(s1)CN(C(=O)c1ccc(C#N)c(C)n1)C2 [Example 981, 4-(6-chloro-3-methoxypyridazin-4-yl)-N-(5-(5-cyano-6-methylpicolinoyl)-5,6-dihydro-4H-pyrrolo[3,4-d]thiazol-2-yl)-6-methylnicotinamide]",–,≥ 10,–
–,–,0.001 to 0.1,"COc1cnc(Cl)cc1-c1cc(C)ncc1C(=O)Nc1nc2c(s1)CN(C(=O)c1nccc(C(F)F)c1C)C2 [Example 976, 2′-chloro-N-(5-(4-(difluoromethyl)-3-methylpicolinoyl)-5,6-dihydro-4H-pyrrolo[3,4-d]thiazol-2-yl)-5′-methoxy-6-methyl-[4,4′-bipyridine]-3-carboxamide]",–,≥ 10,–
–,–,0.001 to 0.1,"COc1cnc(Cl)cc1-c1cc(C)ncc1C(=O)Nc1nc2c(s1)CN(C(=O)c1ccc(C(F)F)nc1C)C2 [Example 947, 2′-chloro-N-(5-(6-(difluoromethyl)-2-methylnicotinoyl)-5,6-dihydro-4H-pyrrolo[3,4-d]thiazol-2-yl)-5′-methoxy-6-methyl-[4,4′-bipyridine]-3-carboxamide]",–,≥ 10,–
–,–,–,"2′-chloro-N-(5-(5-chloro-4-(difluoromethyl)pyrimidine-2-carbonyl)-5,6-dihydro-4H-pyrrolo[3,4-d]thiazol-2-yl)-5′-methoxy-6-methyl-[4,4′-bipyridine]-3-carboxamide [Example 644]",–,–,IC50 ([1]; 7-day CellTiter-Glo): ≥ 10 µM; IC50 ([3]; 7-day CellTiter-Glo): 0.1 to 0.25 µM
–,–,0.001 to 0.1,COc1cnc(Cl)cc1-c1cc(C)ncc1C(=O)Nc1nc2c(s1)CN(C(=O)c1ccc(C(F)F)c(C)n1)C2,–,≥ 10,–
–,–,0.001 to 0.1,"COc1cc2c(cnn2C)cc1-c1cc(C)ncc1C(=O)Nc1nc2c(s1)CN(C(=O)c1ccc(C(F)(F)F)nc1OC)C2 [Example 1010, 4-(6-methoxy-1-methyl-1H-indazol-S-yl)-N-(5-(2-methoxy-6-(trifluoromethyl)nicotinoyl)-5,6-dihydro-4H-pyrrolo[3,4-d]thiazol-2-yl)-6-methylnicotinamide]",–,≥ 10,–
–,–,0.001 to 0.1,"COc1cnc(Cl)cc1-c1cc(C)ncc1C(=O)Nc1nc2c(s1)CN(C(=O)c1nc(C(F)(F)F)ccc1Cl)C2 [Example 952, 2′-chloro-N-(5-(3-chloro-6-(trifluoromethyl)picolinoyl)-5,6-dihydro-4H-pyrrolo[3,4-d]thiazol-2-yl)-5′-methoxy-6-methyl-[4,4′-bipyridine]-3-carboxamide]",–,≥ 10,–
–,–,0.001 to 0.1,"COc1cnc(Cl)cc1-c1cc(C)ncc1C(=O)Nc1nc2c(s1)CN(C(=O)c1nccc(C(F)(F)F)c1C)C2 [Example 951, 2′-chloro-5′-methoxy-6-methyl-N-(5-(3-methyl-4-(trifluoromethyl)picolinoyl)-5,6-dihydro-4H-pyrrolo[3,4-d]thiazol-2-yl)-[4,4′-bipyridine]-3-carboxamide]",–,≥ 10,–
